# ChEMBL document CHEMBL1201862, “PubChem BioAssay data set” (2004)
#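 A five-concentration, 48-hour dose response in 96-well plates underlies each endpoint, interpolated linearly between surrounding concentrations. At the GI50, growth is halved.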 Active and inactive are the calls of the source. Rule as the data show it: active = GI50 up to about 1.1 µM and inactive = higher.
# How the values were obtained:
# Test in all cases: DTP human tumour cell line panel, 48 h
# [1] = tested on: 786-0
# [2] = tested on: KM-20L2
# [3] = tested on: A549
# [4] = tested on: K562
# [5] = tested on: COLO 205
# [6] = tested on: RPMI-8226
# [7] = tested on: ACHN
# [8] = tested on: SN12C
# [9] = tested on: SF-539
# [10] = tested on: Malme-3M
# [11] = tested on: MOLT-4
# [12] = tested on: CAKI-1
# [13] = tested on: SF-268
# [14] = tested on: SW-620
# [15] = tested on: SF-295
# [16] = tested on: OVCAR-4
# [17] = tested on: LOX IMVI
# [18] = tested on: SNB-75
# [19] = tested on: T47D
# [20] = tested on: MDA-N
Compound,GI50 [1],GI50 [2],GI50 [3],GI50 [4],GI50 [5],GI50 [6],GI50 [7],GI50 [8],GI50 [9],GI50 [10],GI50 [11],GI50 [12],GI50 [13],GI50 [14],GI50 [15],GI50 [16],GI50 [17],GI50 [18],GI50 [19],GI50 [20]
COC(=O)C(=O)C(C(=O)C(=O)Nc1cc(C)ccc1C)c1nc2ccc(C(=O)c3ccccc3)cc2nc1O (stereo not drawn),> 100 µM (inactive),> 100 µM (inactive),> 100 µM (inactive),31 µM (inactive),> 100 µM (inactive),94.2 µM (inactive),> 100 µM (inactive),> 100 µM (inactive),> 100 µM (inactive),> 100 µM (inactive),48.9 µM (inactive),27.5 µM (inactive),> 100 µM (inactive),> 100 µM (inactive),83.6 µM (inactive),> 100 µM (inactive),,,,
CC(C)N1CCOC(c2ccc(O)c(O)c2)C1 (stereo not drawn),> 100 µM (inactive),> 100 µM (inactive),> 100 µM (inactive),> 100 µM (inactive),> 100 µM (inactive),> 100 µM (inactive),> 100 µM (inactive),> 100 µM (inactive),,> 100 µM (inactive),> 100 µM (inactive),> 100 µM (inactive),> 100 µM (inactive),> 100 µM (inactive),> 100 µM (inactive),> 100 µM (inactive),> 100 µM (inactive),> 100 µM (inactive),,
CC(C)(C)[C@H]1CO[C@]2(c3ccccc3)[C@@H]3C[C@@H]3C(=O)N12,> 100 µM (inactive),> 100 µM (inactive),> 100 µM (inactive),> 10 µM (inactive),> 100 µM (inactive),> 100 µM (inactive),> 100 µM (inactive),> 100 µM (inactive),> 100 µM (inactive),> 100 µM (inactive),,> 100 µM (inactive),> 100 µM (inactive),> 100 µM (inactive),> 100 µM (inactive),> 100 µM (inactive),> 100 µM (inactive),> 100 µM (inactive),,
C[N+](C)(C)CC(=O)N/N=C(\C(=O)Nc1ccc(Cl)cc1)C1C(=O)N(c2ccccc2)N=C1N (stereo not drawn),> 100 µM (inactive),> 100 µM (inactive),> 100 µM (inactive),> 100 µM (inactive),> 100 µM (inactive),> 100 µM (inactive),> 100 µM (inactive),> 100 µM (inactive),> 100 µM (inactive),> 100 µM (inactive),> 100 µM (inactive),> 100 µM (inactive),> 100 µM (inactive),> 100 µM (inactive),,> 100 µM (inactive),> 100 µM (inactive),> 100 µM (inactive),,
CN(C(=O)C12C3C4C1C1C2C3C41I)C(C)(C)C (stereo not drawn),> 100 µM (inactive),> 89.3 µM (inactive),> 100 µM (inactive),,> 87.1 µM (inactive),> 100 µM (inactive),98.9 µM (inactive),> 100 µM (inactive),> 100 µM (inactive),> 95.9 µM (inactive),,> 100 µM (inactive),> 100 µM (inactive),> 100 µM (inactive),> 100 µM (inactive),> 100 µM (inactive),> 100 µM (inactive),> 65.6 µM (inactive),,
Cc1nc(N)sc1C(=O)/C=C/c1ccc([N+](=O)[O-])cc1,> 100 µM (inactive),> 100 µM (inactive),> 100 µM (inactive),> 100 µM (inactive),> 100 µM (inactive),> 100 µM (inactive),,> 100 µM (inactive),> 100 µM (inactive),> 100 µM (inactive),> 100 µM (inactive),> 100 µM (inactive),> 100 µM (inactive),> 100 µM (inactive),> 100 µM (inactive),,> 100 µM (inactive),64.6 µM (inactive),,
CCOC(=O)C1(C(=O)OCC)C(C(C)(C)C)=C(C)c2ccccc21,15.8 µM (inactive),13.5 µM (inactive),18.1 µM (inactive),8.55 µM (inactive),13.3 µM (inactive),7.89 µM (inactive),13.2 µM (inactive),15.3 µM (inactive),18.2 µM (inactive),11.4 µM (inactive),29.9 µM (inactive),,16.8 µM (inactive),15.3 µM (inactive),11.7 µM (inactive),14.9 µM (inactive),12.3 µM (inactive),19.3 µM (inactive),,
Cc1nc2nn[nH]n2c(=O)c1CCO,> 100 µM (inactive),,> 100 µM (inactive),> 100 µM (inactive),> 100 µM (inactive),> 100 µM (inactive),> 100 µM (inactive),> 100 µM (inactive),> 100 µM (inactive),> 100 µM (inactive),> 100 µM (inactive),> 100 µM (inactive),> 100 µM (inactive),> 100 µM (inactive),> 100 µM (inactive),> 100 µM (inactive),> 100 µM (inactive),26.6 µM (inactive),> 100 µM (inactive),> 100 µM (inactive)
CCOC(=O)C(SCCO)C(C(=O)OCC)n1cnc2c(N)ncnc21 (stereo not drawn),3.03 µM (inactive),,44.3 µM (inactive),3.66 µM (inactive),6.03 µM (inactive),5.04 µM (inactive),10.5 µM (inactive),9.98 µM (inactive),16.3 µM (inactive),9.91 µM (inactive),4.78 µM (inactive),4.31 µM (inactive),15.9 µM (inactive),3.01 µM (inactive),40.2 µM (inactive),18.7 µM (inactive),5.61 µM (inactive),12.1 µM (inactive),11.2 µM (inactive),15.8 µM (inactive)
C=C1CC(CC(=O)C(C)CC2CC(=C)C(=O)O2)OC1=O (stereo not drawn),20.3 µM (inactive),33 µM (inactive),52 µM (inactive),22.7 µM (inactive),13.6 µM (inactive),,18.6 µM (inactive),16.7 µM (inactive),18.8 µM (inactive),14.5 µM (inactive),11.5 µM (inactive),,22.4 µM (inactive),11 µM (inactive),> 100 µM (inactive),16.4 µM (inactive),15.6 µM (inactive),61.4 µM (inactive),,
CCOC(=O)c1c2ccc(/C=C/C(=O)OC)ccc-2c(C(=O)OCC)c1N,> 100 µM (inactive),> 100 µM (inactive),> 100 µM (inactive),> 100 µM (inactive),> 100 µM (inactive),,> 100 µM (inactive),,> 100 µM (inactive),> 100 µM (inactive),> 100 µM (inactive),> 100 µM (inactive),2.11 µM (inactive),> 100 µM (inactive),> 100 µM (inactive),> 100 µM (inactive),> 100 µM (inactive),> 100 µM (inactive),,
NC(=S)N/N=C/C(=C/Nc1ccccc1)[N+](=O)[O-],> 100 µM (inactive),> 100 µM (inactive),> 100 µM (inactive),> 100 µM (inactive),> 100 µM (inactive),> 100 µM (inactive),> 100 µM (inactive),> 100 µM (inactive),> 100 µM (inactive),> 100 µM (inactive),,> 100 µM (inactive),> 100 µM (inactive),> 100 µM (inactive),> 100 µM (inactive),> 100 µM (inactive),> 100 µM (inactive),> 100 µM (inactive),,
CC(C)NCCCC(C)Nc1ccnc2ccc3nn(C)nc3c12 (stereo not drawn),44.2 µM (inactive),> 10 µM (inactive),62.1 µM (inactive),33.2 µM (inactive),28.3 µM (inactive),74.8 µM (inactive),61.2 µM (inactive),61.8 µM (inactive),83.2 µM (inactive),63 µM (inactive),35 µM (inactive),60.5 µM (inactive),96.8 µM (inactive),38.5 µM (inactive),34.6 µM (inactive),,33.6 µM (inactive),> 100 µM (inactive),,
COc1cc(C2C=C(c3ccccc3)Oc3cc4c(cc32)OCO4)cc(OC)c1OC (stereo not drawn),0.386 µM (active),,0.2 µM (active),0.435 µM (active),0.33 µM (active),0.555 µM (active),1.53 µM (inactive),0.675 µM (active),0.265 µM (active),0.527 µM (active),0.43 µM (active),0.507 µM (active),3.17 µM (inactive),0.406 µM (active),0.124 µM (active),6.37 µM (inactive),0.569 µM (active),2.4 µM (inactive),2 µM (inactive),0.249 µM (active)
O=C(Nc1cc(Cl)cc(Cl)c1)/C(Cc1nc2ccccc2nc1O)=N/NC(=O)c1ccncc1,> 100 µM (inactive),> 100 µM (inactive),> 100 µM (inactive),> 100 µM (inactive),> 100 µM (inactive),> 100 µM (inactive),> 100 µM (inactive),,> 100 µM (inactive),> 100 µM (inactive),> 100 µM (inactive),> 100 µM (inactive),,> 100 µM (inactive),> 100 µM (inactive),> 100 µM (inactive),> 100 µM (inactive),,,
C=C(C)[C@H]1C2=CC(C)=C(O2)[C@@H](O)[C@H](C(=C)C)CCC2=C[C@H]1OC2=O [KALLOLIDE A],> 100 µM (inactive),,> 100 µM (inactive),> 100 µM (inactive),> 100 µM (inactive),> 100 µM (inactive),> 100 µM (inactive),> 100 µM (inactive),> 100 µM (inactive),> 100 µM (inactive),> 100 µM (inactive),> 100 µM (inactive),> 100 µM (inactive),> 100 µM (inactive),> 100 µM (inactive),> 100 µM (inactive),> 100 µM (inactive),> 100 µM (inactive),> 100 µM (inactive),> 100 µM (inactive)
